Assay results taken from ChEMBL document CHEMBL1201862, “PubChem BioAssay data set” (2004).
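These data come from cells grown in 96-well plates and exposed to compound for 48 hours at five concentrations. At the GI50, growth is halved.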 Active and inactive are the calls of the source. No stated cut-off is given here; in the data, active = GI50 up to about 1.1 µM and inactive = higher.

What was measured:
Assay in all cases: inhibition of tumour cell growth, NCI panel, 48 h
[1] = test system: SNB-19
[2] = test system: OVCAR-8
[3] = test system: MDA-N
[4] = test system: UACC-62
[5] = test system: ACHN
[6] = test system: BT-549
[7] = test system: DU-145
[8] = test system: HCT-15
[9] = test system: A549
[10] = test system: SK-OV-3
[11] = test system: LOX IMVI
[12] = test system: MOLT-4
[13] = test system: IGROV-1
[14] = test system: OVCAR-5
[15] = test system: HOP-92
[16] = test system: OVCAR-4
[17] = test system: NCI-H522
[18] = test system: HCT-116
[19] = test system: 786-0
[20] = test system: SK-MEL-5
[21] = test system: PC-3
[22] = test system: CCRF-CEM
[23] = test system: NCI-H23
[24] = test system: SK-MEL-28
[25] = test system: SN12C
[26] = test system: HT-29
[27] = test system: M14
[28] = test system: NCI-H460
[29] = test system: HCC 2998
[30] = test system: MDA-MB-231
[31] = test system: U-251
[32] = test system: UACC-257
[33] = test system: CAKI-1
[34] = test system: RPMI-8226
[35] = test system: KM12
[36] = test system: NCI/ADR-RES
[37] = test system: MDA-MB-435
[38] = test system: K562
[39] = test system: Malme-3M
[40] = test system: SR
[41] = test system: SNB-75
[42] = test system: SF-539
[43] = test system: NCI-H226
[44] = test system: MCF7
[45] = test system: HOP-62
[46] = test system: UO-31
[47] = test system: SF-295
[48] = test system: SW-620
[49] = test system: SF-268
[50] = test system: OVCAR-3
[51] = test system: RXF 393
[52] = test system: TK-10
[53] = test system: EKVX
[54] = test system: COLO 205
[55] = test system: SK-MEL-2

## C=CCOCC1C2CCC3(OCCO3)C21 (stereo not given)
[1]
  GI50: > 100 µM (inactive)
[2]
  GI50: > 100 µM (inactive)
[3]
  GI50: > 100 µM (inactive)
[4]
  GI50: 30.1 µM (inactive)
[5]
  GI50: > 100 µM (inactive)
[6]
  GI50: > 100 µM (inactive)
[7]
  GI50: > 100 µM (inactive)
[8]
  GI50: > 100 µM
[9]
  GI50: > 100 µM (inactive)
[10]
  GI50: > 100 µM (inactive)
[11]
  GI50: > 100 µM (inactive)
[12]
  GI50: > 100 µM (inactive)
[13]
  GI50: > 100 µM (inactive)
[14]
  GI50: > 100 µM (inactive)
[15]
  GI50: > 100 µM (inactive)
[16]
  GI50: > 100 µM (inactive)
[17]
  GI50: > 100 µM (inactive)
[18]
  GI50: > 100 µM (inactive)
[19]
  GI50: > 100 µM (inactive)
[20]
  GI50: > 100 µM (inactive)
[21]
  GI50: > 100 µM (inactive)
[22]
  GI50: 99.5 µM (inactive)
[23]
  GI50: 48.5 µM (inactive)
[24]
  GI50: > 100 µM (inactive)
[25]
  GI50: > 100 µM (inactive)
[26]
  GI50: > 100 µM (inactive)
[27]
  GI50: > 100 µM (inactive)
[28]
  GI50: > 100 µM (inactive)
[29]
  GI50: > 100 µM (inactive)
[30]
  GI50: > 100 µM (inactive)
[31]
  GI50: > 100 µM (inactive)
[32]
  GI50: > 100 µM (inactive)
[33]
  GI50: 30.4 µM (inactive)
[34]
  GI50: > 100 µM (inactive)
[35]
  GI50: > 100 µM (inactive)
[36]
  GI50: > 100 µM (inactive)
[37]
  GI50: > 100 µM (inactive)
[38]
  GI50: 46.9 µM (inactive)
[39]
  GI50: > 100 µM (inactive)
[40]
  GI50: > 100 µM (inactive)
[41]
  GI50: > 100 µM (inactive)
[42]
  GI50: > 100 µM (inactive)
[43]
  GI50: > 100 µM (inactive)
[44]
  GI50: > 100 µM (inactive)
[45]
  GI50: > 100 µM (inactive)
[46]
  GI50: 19.1 µM (inactive)
[47]
  GI50: > 100 µM (inactive)
[48]
  GI50: > 100 µM (inactive)
[49]
  GI50: > 100 µM (inactive)
[50]
  GI50: > 100 µM (inactive)
[51]
  GI50: > 100 µM (inactive)
[52]
  GI50: > 100 µM (inactive)
[53]
  GI50: > 100 µM (inactive)
[54]
  GI50: > 100 µM (inactive)
[55]
  GI50: > 100 µM (inactive)
